# Columns and labels:
# WEE1 kinase = target: T1, WEE1 kinase (Homo sapiens, UniProt P30291); experiment: Inhibitory effect of compound on WEE1 kinase in vitro (ELISA); format: biochemical; details: ATP concentration of Km
# T1 construct: purchased CarnaBiosciences, Inc. 05-177
# Description: The tested compounds were screened on WEE1 kinase with ATP concentration of Km by ELISA. Compounds were screened on WEE1 kinase to evaluate the kinase inhibitory activity of the tested compounds. In the detection process, the initial concentration of the tested compounds was all selected as 100 nM, and each compound was selected with 6 gradient dilution concentrations, the gradient dilution ratio was 4-fold, and two replicate wells were detected for each concentration, MK1775 was used as the standard control.
# WEE1, purchased from CarnaBiosciences, Inc., Item No. 05-177; dimethyl sulfoxide, purchased from Sigma-Aldrich, Item No. D8418; ATP, purchased from Sigma-Aldrich, Item No. A7699; DTT solution, purchased from Sigma-Aldrich, Item No. 43816; protein tyrosine kinase (PTK) substrate (poly-Glu-Tyr), purchased from Sigma-Aldrich, Item No. P4476; P-Tyr (PY99), purchased from Santa Cruz, Item No. sc-7020; Anti-mouse IgG HRP-linked Antibody, purchased from Santa Cruz, Item No. 7076S; TMB liquid Substrate System, purchased from Sigma-Aldrich, Item No. T0440; Costar Stripwell Microplate No Lid 1×8 Flat Bottom, Certified High Binding, purchased from Sigma-Aldrich, Item No. 42592; 96-well compound plate, purchased from Thermo Scientific, Item No. 267245.
# • 1. Coating substrate: 1) An appropriate volume of substrate storage solution protein tyrosine kinase (PTK) substrate (poly-Glu-Tyr) was taken, diluted 10 times with PBS, and the concentration was diluted from […]. The mixture was added to a high adsorption 96-well plate at 125 μL per well. The plate was placed in an incubator at 37° C. for overnight coating. 2) After 24 hours, the 96-well plate was taken out, the liquid in the 96-well plate was poured out, cleaned with washing buffer for 3 times, and the incubator at 37° C. was inverted and dried for 2 hours. • 2. Compound preparation and transfer: 1) compound dilution: 10 mM of the test compound storage solution was taken, the compound in 96-well compound plate was diluted with DMSO in multiple steps to obtain the initial concentration of 100× compound as the first concentration, and then DMSO was used for 4-fold gradient dilution, for a total of 6 concentrations; after that, 2 μL of the gradient dilution solution was added to 48 μL of 1× reaction buffer respectively to prepare 4× compound; 2) 4× compounds were transferred: 10 μL of 4× compounds from the 96-well compound plate configured in the previous step were transferred into the dried high adsorption 96-well plate; 10 μL of the following liquids were added to the compound-free control wells and ATP-control wells: 2 μL of DMSO was added to 48 μL of 1× reaction buffer. • 3. Enzyme reaction stage: 1) WEE1 kinase and ATP were prepared into 2× enzyme solution and 4×ATP solution respectively with 1× reaction buffer. In this screening, the final concentration of WEE1 kinase was: 0.15 ng/μL and the final concentration of ATP was: […]; 2) 20 μL of enzyme solution of 2 was added to the high adsorption 96-well plate; 3) 10 μL of 4×ATP solution was added to the high adsorption 96-well plate and 10 μL of 1× reaction buffer was added to the ATP-control group; 4) the plate was placed in HERAEUS Multifuge X1R centrifuge at 2000 rpm for 20 s and then placed at room temperature and reacted for 60 min. • 4. Reaction termination stage: 1) the reaction mixture in the plate was poured out, 200 μL of washing buffer was added to each well, and washed for 5 times; the primary antibody P-Tyr (PY99) (dilution ratio 1:2000) was added, 100 μL per well, at room temperature for 30 min. 2) The primary antibody in the plate was poured out, 200 μL of washing buffer was added to each well, and washed for 5 times; the second antibody Anti-mouse IgG HRP-linked Antibody (dilution ratio 1:2000) was added, 100 μL per well, at room temperature for 30 min.
# [1] = Bioavailability test in vivo in mice (pharmacokinetics, iv and intragastric); parameters: species or system ICR mice
# Description: 404.6 μL of DMSO was added to the compound powder of the present disclosure until the compound was completely dissolved, and 50 mg/mL mother liquor was prepared in a clarified state.
# The compound of the present disclosure: 24 μL of mother liquor was accurately measured, diluted to 4 mL according to the ratio of 0.9% normal saline:PEG400=8:2, the preparation concentration was 0.3 mg/mL, the solution was in a clarified state, and it was used as intravenous administration solution. In addition, 80 μL mother liquor was accurately measured, and 0.5% CMC-Na was added to 8 mL to grind it into a uniform suspension with a concentration of 0.5 mg/mL, which was used as intragastric administration solution.
# (§1) Intravenous group: 24 ICR mice, 20±2 g, were given the intravenous administration solution of the compound of the present disclosure by intravenous injection, with the volume of 10 mL/kg, with the dose of 3 mg/kg, the blood was taken from the fundus venous plexus of mice, 2, 5, 15, 30, 60, 90, 120, 240, 360, 480, 600 and 1440 minutes before and after administration.
# as §1, with “Intragastric group:” for “Intravenous group:”, “the intragastric” for “the intravenous”, “by intragastric” for “by intravenous”, “of 20” for “of 10”, “of 10” for “of 3”, “mice,” for “mice, 2,”
# Blood sample was centrifuged at 8000 rpm for 5 min, and the plasma was stored in a centrifuge tube at −20° C. for later use.
# 300 μL of acetonitrile containing internal standard (Propranolol, 25 ng/mL) was added to 50 μL of plasma samples to precipitate protein, vortexed for 10 min, 6000 g, 4° C., centrifuged for 10 min; the supernatant before intravenous injection for 1 hour was taken, diluted 10 times with acetonitrile containing internal standard, the rest supernatant was kept undiluted, centrifuged for 10 min again at 6000 g, 4° C., and the supernatant was taken and then injected into a 96-well plate.
# (§2) Dose; peak concentration: Cmax; peak time: Tmax; area under the drug-time curve from AUClast 0 to time t; half-life: T1/2; mean retention time: MRT; clearance: Cl; apparent distribution volume: Vz; steady-state distributed volume: Vss; absolute bioavailability: F.
# The pharmacokinetic parameters of the compound in mice after intravenous injection or intragastric administration were shown in Table 4 and Table 5 below.
# [2] = Bioavailability test in vivo in cynomolgus monkey (pharmacokinetics, IV and PO); details: cynomolgus monkeys
# Description: Twelve male Non-Naïve cynomolgus monkeys were purchased from GuangxiGuidong Primate Development Experiment Co. LTD.
# (§3) 54.31 mg of I-8-1 was accurately weighed, and 1.08 mL of DMSO was added, then the mixture was vortexed for 1 min, sonicated for 15 min, and then diluted to 36 mL according to the ratio of 10% HP-β-cyclodextrin (prepared by normal saline): PEG=8:2, vortexed for 1 min. A colorless clarified administration solution (the pH value was about 7) at a concentration of 1.5 mg/mL was prepared for intravenous administration to Group 1.
# 300.9 mg of I-8-1 was accurately weighed, and 75 mL of 0.5% CMC-Na was added, the mixture was fully ground and stirred for 5 min. A white suspension (the pH value was about 7) at a concentration of 4 mg/mL was prepared for oral administration to Group 2.
# as §3, with “54.05 mg” for “54.31 mg”, “of AZD1775” for “of I-8-1”, “then he” for “then the”, “of 10%-D-cyclodextrin” for “of 10% HP-β-cyclodextrin”, “A yellow” for “A colorless”, “Group 3.” for “Group 1.”
# 300.7 mg of AZD1775 was accurately weighed, and 75 mL of 0.5% CMC-Na was added, the mixture was fully ground and stirred for 5 min. A yellow suspension (the pH value was about 7) at a concentration of 4 mg/mL was prepared for oral administration to Group 4.
# Before administration, all animals were fasted overnight (approximately 12 hours) and fed as required and administered according to the table below.
# Intravenous group: before administration (0 h), 0.033 h, 0.083 h, 0.25 h, 0.5 h, 1 h, 1.5 h, 2 h, 4 h, 6 h, 8 h, 12 h, 24 h after administration.
# Oral group: before administration (0 h), 0.083 h, 0.25 h, 0.5 h, […], 2 h, 4 h, 6 h, 8 h, 12 h, 24 h after administration.
# Blood samples were collected by puncture through lower limb vein or other suitable blood vessels at 1 mL/time point (3 mL of blood samples were collected from each animal before administration), anticoagulated with heparin sodium, and placed on ice after collection. Plasma was separated at 2200 g/min, 10 min, 2-8° C., plasma samples were stored in a −80° C. refrigerator before being transferred to the client. Plasma samples are stored in dry ice and transferred to the client. The final treatment of the sample will be recorded in the experimental record.
# 300 μL of acetonitrile was added to 50 μL of plasma samples containing internal standard (Propranolol, 25 ng/mL) to precipitate protein, vortexed for 10 min, centrifuged at 6000 g for 10 min, after I-8-1&AZD1775 intravenous injection group was diluted 10 times with internal standard acetonitrile (Propranolol, 25 ng/mL) at the time point before 1 hour, the remaining supernatant was not diluted, centrifuged again at 6000 g at 4° C. for 10 min, and the supernatant was taken and injected into a 96 well plate.
# as §2
# The pharmacokinetic parameters of the compound in cynomolgus monkeys after intravenous injection or intragastric administration were shown in Table 6 below.
# [3] = ICR, mouse, plasma, iv, 3 mg/kg
# [4] = ICR, mouse, plasma, po (intragastric), 10 mg/kg
# [5] = male, cynomolgus monkey, plasma, iv, 3 mg/kg
# [6] = male, cynomolgus monkey, plasma, po, 20 mg/kg, fasted
# T1 sequence (P30291 whole entry): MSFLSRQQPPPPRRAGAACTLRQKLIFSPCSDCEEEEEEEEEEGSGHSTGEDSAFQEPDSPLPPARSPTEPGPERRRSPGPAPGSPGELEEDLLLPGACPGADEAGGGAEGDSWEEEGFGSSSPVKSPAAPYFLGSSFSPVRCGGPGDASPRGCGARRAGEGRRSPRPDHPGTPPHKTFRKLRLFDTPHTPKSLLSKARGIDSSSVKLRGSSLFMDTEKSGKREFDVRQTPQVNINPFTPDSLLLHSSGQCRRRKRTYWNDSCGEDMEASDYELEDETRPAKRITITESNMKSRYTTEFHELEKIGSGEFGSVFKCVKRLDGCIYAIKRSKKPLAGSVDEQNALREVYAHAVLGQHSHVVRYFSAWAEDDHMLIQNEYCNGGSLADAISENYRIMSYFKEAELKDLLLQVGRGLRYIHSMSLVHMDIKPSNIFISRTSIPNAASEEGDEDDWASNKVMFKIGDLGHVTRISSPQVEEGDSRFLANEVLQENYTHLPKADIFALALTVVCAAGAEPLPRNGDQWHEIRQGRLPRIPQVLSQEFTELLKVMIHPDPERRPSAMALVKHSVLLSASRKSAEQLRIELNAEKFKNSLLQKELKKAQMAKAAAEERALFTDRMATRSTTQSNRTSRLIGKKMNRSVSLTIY
smiles,measurement,setting,value
C=CCn1c(=O)c2cnc(Nc3ccc(C4CCC(C(=O)N5CCC5)CC4)cc3)nc2n1-c1cccc(C(C)(C)O)n1 (stereo not drawn) [Compound I-7],IC50,WEE1 kinase,6.53 nM
C=CCn1c(=O)c2cnc(Nc3ccc(C4CCC(N5CCOCC5)CC4)cc3)nc2n1-c1cccc(C(C)(C)O)n1 (stereo not drawn) [Compound I-2],IC50,WEE1 kinase,2.57 nM
"C=CCn1c(=O)c2cnc(Nc3ccc(C4CCC(N5CCC5)CC4)cc3)nc2n1-c1cccc(C(C)(C)O)n1 (single isomer, unassigned) [Compound I-8-2]",IC50,WEE1 kinase,3.52 nM
"C=CCn1c(=O)c2cnc(Nc3ccc(C4CCC(N5CCC5)CC4)cc3)nc2n1-c1cccc(C2(O)COC2)n1 (single isomer, unassigned) [Compound I-36-2]",IC50,WEE1 kinase,2.92 nM
C=CCn1c(=O)c2cnc(Nc3ccc(C4CCC(N5CCOC5=O)CC4)cc3)nc2n1-c1cccc(C2(O)COC2)n1 (stereo not drawn) [Compound I-37],IC50,WEE1 kinase,1.99 nM
"C=CCn1c(=O)c2cnc(Nc3ccc(C4CCC(N5CCCC5)CC4)cc3)nc2n1-c1cccc(C(C)(C)O)n1 (single isomer, unassigned) [Compound I-3-2]",IC50,WEE1 kinase,0.66 nM
C=CCn1c(=O)c2cnc(Nc3ccc(C4CCC(C#N)CC4)cc3)nc2n1-c1cccc(C2(O)COC2)n1 (stereo not drawn) [Compound I-38],IC50,WEE1 kinase,1.68 nM
C=CCn1c(=O)c2cnc(Nc3ccc(C4CCC(NC(=N)N)CC4)cc3)nc2n1-c1cccc(C(C)(C)O)n1 (stereo not drawn) [Compound I-20],IC50,WEE1 kinase,3.45 nM
C=CCn1c(=O)c2cnc(Nc3ccc(C4CCC(C(=O)O)CC4)cc3)nc2n1-c1cccc(C2(O)COC2)n1 (stereo not drawn) [Compound I-40],IC50,WEE1 kinase,4.58 nM
"C=CCn1c(=O)c2cnc(Nc3ccc(C4CCC(N(C)C)CC4)cc3)nc2n1-c1cccc(C2(O)COC2)n1 (single isomer, unassigned) [Compound I-15-2]",IC50,WEE1 kinase,1.68 nM
"C=CCn1c(=O)c2cnc(Nc3ccc(N4CCN(C)CC4)cc3)nc2n1-c1cccc(C(C)(C)O)n1 [Control 1, reference compound]",Cmax,[1]; [3],0.774 ± 0.0538 µg/mL
same,MRT,[1]; [3],0.42 ± 0.02 h
same,Tmax,[1]; [3],0.05 ± 0.03 h
same,clearance,[1]; [3],11 L/h/kg
same,half-life,[1]; [3],0.65 ± 0.03 h
same,Vd,"[1]; ICR, mouse, plasma, iv, 3 mg/kg, iv, 3 mg/kg, read-out: Vss",4.58 ± 0.44 L/kg
same,Vd,"[1]; ICR, mouse, plasma, iv, 3 mg/kg, iv, 3 mg/kg, read-out: Vz",10.3 ± 1.12 L/kg
same,bioavailability,"[1]; ICR, mouse, plasma, po 10 mg/kg vs iv 3 mg/kg, read-out: F (absolute bioavailability)",16.7%
same,Cmax,[1]; [4],0.205 ± 0.124 µg/mL
same,MRT,[1]; [4],4.33 ± 0.28 h
same,Tmax,[1]; [4],0.33 ± 0.14 h
same,half-life,[1]; [4],3.1 ± 0.22 h
same,AUClast,"[1]; iv, 3 mg/kg",273.1 ± 21.34 (h) (ng/mL)
same,AUClast,"[1]; po (intragastric), 10 mg/kg",151.7 ± 62.14 (h) (ng/mL)
same,AUCextra,"[2]; iv, 3 mg/kg",47.62 ± 58.18 (h)*(ng/mL)
same,AUClast,"[2]; iv, 3 mg/kg",4494 ± 1719 (h)*(ng/mL)
same,AUCtot,"[2]; iv, 3 mg/kg",4542 ± 1777 (h)*(ng/mL)
same,thalf,"[2]; iv, 3 mg/kg",2.78 ± 0.26 h
same,AUCextra,"[2]; po, 20 mg/kg, fasted",8.46 ± 1.91 (h)*(ng/mL)
same,AUClast,"[2]; po, 20 mg/kg, fasted",8155 ± 818.2 (h)*(ng/mL)
same,AUCtot,"[2]; po, 20 mg/kg, fasted",8163 ± 819.7 (h)*(ng/mL)
same,thalf,"[2]; po, 20 mg/kg, fasted",2.03 ± 1.22 h
same,Vd,"[2]; male, cynomolgus monkey, plasma, iv, 3 mg/kg, iv, 3 mg/kg, read-out: Vss",4.33 ± 0.74 L/kg
same,Vd,"[2]; male, cynomolgus monkey, plasma, iv, 3 mg/kg, iv, 3 mg/kg, read-out: Vz",2.84 ± 0.76 L/kg
same,Cmax,[2]; [5],1.2 ± 0.134 µg/mL
same,MRT,[2]; [5],6.53 ± 2.51 h
same,Tmax,[2]; [5],2.69 ± 4.6 h
same,clearance,[2]; [5],0.72 L/h/kg
same,bioavailability,"[2]; male, cynomolgus monkey, plasma, po 20 mg/kg vs iv 3 mg/kg, read-out: BA (absolute bioavailability)",27.2%
same,Cmax,[2]; [6],1.63 µg/mL
same,MRT,[2]; [6],3.58 ± 0.07 h
same,Tmax,[2]; [6],2 h
